# Measured values from patent publication US4537614A, “S-aryl and S-aliphatic diamidophosphorothiolates as urease inhibitors and urease inhibited urea based fertilizer compositions” (Allied Corporation, priority 1984, dated 1985).
# Legend:
# [1] = test system: urease; test: Urease Inhibiting Efficacy Test in New York soil (Cazenovia silt loam, pH 7.2); type: biochemical; conditions: 25° C., 3 days, remaining urea
# Method: (§1) Representative compounds were tested to evaluate their efficacy in the inhibition of urease as compared to structurally similar compounds. The inhibition tests were run in a New York soil (Cazenovia silt loam, pH 7.2) and a Wisconsin soil (Plano silt loam, pH 5.4). […] The bottle was capped with perforated aluminum foil and incubated at 25° C. for 3 days prior to extraction with 100 mL of a 2M potassium chloride solution containing 0.5 mg of phenylmercuric acetate. The extracts were then analyzed for remaining urea using an autoanalyzer. Percent inhibition was calculated as
# (§2) % Inhibition=[1-(A-B/A-C)]×100%
# (§3) where A is urea recovered from unincubated sample (urea added to soil and immediately extracted); B is urea recovered from inhibited sample; and C is urea recovered from the control (uninhibited sample).
# [2] = test system: urease; test: Urease Inhibiting Efficacy Test in Wisconsin soil (Plano silt loam, pH 5.4); type: biochemical; conditions: 25° C., 3 days, remaining urea
# Method: as §1, §2, §3
# [3] = test system: urease; test: Efficacy as urease inhibitor, general statement (long term residual activity); conditions: primarily because of relatively long term residual activity
# [4] = 800 micrograms test compound + 42.8 mg urea per 20 g air dry soil
# [5] = 200 micrograms test compound (footnote *) + 42.8 mg urea per 20 g air dry soil
compound,measurement,setting,value
"COP(N)(N)=O [Comp. Ex. 1, reference compound]",% Inhibition Cazenovia Soil,[1]; [4],34%
"CCCOP(N)(N)=O [Comp. Ex. 2, reference compound]",% Inhibition Cazenovia Soil,[1]; [4],15%
"CCCCSP(N)(N)=O [Experiment 2, S-(n-Butyl) Diamidophosphorothiolate]",% Inhibition Cazenovia Soil,[1]; [5],74%
same,% Inhibition Wisconsin Soil,[2]; [5],82%
same,efficacy among the especially efficacious compounds,[3],most efficacious
"CCC(C)SP(N)(N)=O (stereo not drawn) [Experiment 3, S-(2-Butyl) Diamidophosphorothiolate]",% Inhibition Cazenovia Soil,[1]; [5],74%
same,% Inhibition Wisconsin Soil,[2]; [5],84%
"CC(C)CSP(N)(N)=O [Experiment 4, S-(iso-Butyl) Diamidophosphorothiolate]",% Inhibition Cazenovia Soil,[1]; [5],80%
same,% Inhibition Wisconsin Soil,[2]; [5],83%
same,efficacy among the especially efficacious compounds,[3],most efficacious
"CCCCCCSP(N)(N)=O [Experiment 5, S-(n-Hexyl) Diamidophosphorothiolate]",% Inhibition Cazenovia Soil,[1]; [5],52%
same,% Inhibition Wisconsin Soil,[2]; [5],66%
same,efficacy among the especially efficacious compounds,[3],most efficacious
"NP(N)(=O)SC1CCCCC1 [Experiment 6, S-(Cyclohexyl) Diamidophosphorothiolate]",% Inhibition Cazenovia Soil,[1]; [5],66%
same,% Inhibition Wisconsin Soil,[2]; [5],58%
CSP(N)(N)=O [S-Methyl Diamidophosphorothiolate],% Inhibition Cazenovia Soil,[1]; [4],93%
same,% Inhibition Wisconsin Soil,[2]; [4],93%
